The subject of assay [1] is U266 cells. Put plainly: NK-92 NK cell activity against calcein-AM-stained U266 cells. It counts as cell-based. The settings on record: NK-92 cells, 48 h; Pom 0.5 and 1 μM; CC-220 0.1 and 1 μM, E/T 2.5/1. As for the experimental part:
(A) NK-92 cells were cultured with Pom (0.5 and 1 μM) for 24 h. Whole cell lysates were subjected to immunoblotting using indicated Abs. (B) NK-92 cells were cultured with Pom (0.5 and 1 μM) for 48 h. The cells were subsequently incubated with calcein-AM-stained U266 cells for 4 h at the indicated effector/target (E/T) ratios. Percent specific lysis was calculated as described previously. (C) NK-92 cells were cultured with Pom (0.03-3 μM) for 72 h. Cell growth was assessed by MTT assay. (D) NK-92 cells were transfected with scrambled (Sc) or Zap-70 siRNA (Zap70si). After 72 h incubation, cell viability was measured by trypan-blue dye exclusion. For B, C, and D, data are representative of at least two independent experiments, and values are expressed in mean±SD.
(A) NK-92 cells were cultured with Len (1 μM), Pom (0.01, 0.1, 1 μM) or CC-220 (0.01, 0.1, 1 μM) for 24 h. Whole cell lysates were subjected to immunoblotting using indicated Abs. (B) NK-92 cells were cultured with Pom (0.1 and 1 μM) or CC-220 ([…]) for 48 h. NK cell activity was measured by incubation with calcein AM-labeled U266 cells for 4 h at E/T ratio of 2.5/1. Percent specific lysis was calculated as previously described. Data are representative of three independent experiments, and values are expressed in mean±SD. *: p<0.01.

Assay [2] relates to U266 cells. Kind of assay: Primary NK cell cytolytic activity against calcein AM-labeled U266. The settings on record: primary NK cells #1, #2, pomalidomide 0.25-1 μM 24 h, E/T 5/1 and 10/1. It counts as cell-based, human. As for the experimental part: KHYG-1 cells were cultured with pomalidomide (0.25-1 μM) for 24 h. (A) Whole cell lysates were subjected to immunoblotting using indicated Abs. (B) KHYG-1 cells were incubated with calcein-AM-stained U266 cells for 4 h at the indicated effector/target (E/T) ratios. Percent specific lysis was calculated as described previously. (C) KHYG-1 cells were transfected with Scsi or Zap-70si, and then cultured with pomalidomide (0.25 μM) for 72 h in the absence of IL-2. Viable cell number was determined, and cells were then incubated with calcein AM-labeled U266 target cells for 4 h at indicated effector/target (E/T) ratios. Percent specific lysis was calculated as described previously. (D) After transfection with Scsi or Zap-70si, cells were cultured with lenalidomide or pomalidomide for 72 h. Cell growth was assessed by MTT assay. (E) KHYG-1 cells were transfected with scrambled (Scsi) or CRBNsi. The transfectants were then cultured with pomalidomide (0.5 μM) for 24 h, and whole cell lysates were subjected to immunoblotting using indicated Abs. The arrow indicates CRBN expression. (F) Primary NK cells (#1, #2, #3, #4) were isolated from healthy volunteer's PBMCs, as described in Materials and Methods. NK cells were cultured with pomalidomide (0.5 μM) for 24 h, and whole cell lysates were subjected to immunoblotting using indicated Abs. […] Percent specific lysis was calculated as previously described.

The target of assay [3] is T1, Zap-70 (Homo sapiens, UniProt P43403).
T1 sequence (P43403 1-619): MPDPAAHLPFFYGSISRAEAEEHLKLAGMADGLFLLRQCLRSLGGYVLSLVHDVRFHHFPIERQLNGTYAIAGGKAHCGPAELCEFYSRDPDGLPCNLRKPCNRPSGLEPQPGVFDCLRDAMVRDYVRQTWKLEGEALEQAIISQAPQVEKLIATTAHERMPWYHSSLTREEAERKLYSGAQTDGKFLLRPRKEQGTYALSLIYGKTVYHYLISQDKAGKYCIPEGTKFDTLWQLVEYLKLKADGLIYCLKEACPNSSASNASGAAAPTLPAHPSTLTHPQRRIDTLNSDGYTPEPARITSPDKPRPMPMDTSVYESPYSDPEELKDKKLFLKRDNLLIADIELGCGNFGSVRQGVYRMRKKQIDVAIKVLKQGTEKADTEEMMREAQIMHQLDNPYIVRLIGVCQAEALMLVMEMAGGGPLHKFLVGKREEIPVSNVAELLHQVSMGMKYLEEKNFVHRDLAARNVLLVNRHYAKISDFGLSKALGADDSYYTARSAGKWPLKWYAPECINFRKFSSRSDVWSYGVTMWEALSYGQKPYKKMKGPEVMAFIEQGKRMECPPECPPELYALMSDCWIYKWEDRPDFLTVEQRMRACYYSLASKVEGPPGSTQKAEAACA
Put plainly: Immunoblotting of p-Zap-70, p-LAT and p-ERK in PBMCs. More on the design: endogenous in cells; host or cells: primary PBMCs, primary T cells and primary NK cells from healthy volunteers. It counts as cell-based. As for the experimental part: (§1) (A) PBMCs were cultured with pomalidomide (“Pom”) (0.01-1 μM) for 16 h. […] (B) PBMCs were cultured with pomalidomide (0.1 and 1 μM) for the indicated time periods. (C) PBMCs were cultured with lenalidomide (“Len”) (1 μM) for 16 h. (D) Primary T-cells from healthy volunteer were cultured with pomalidomide (0.25-1 μM) for 16 h. (E) Jurkat cells were cultured with pomalidomide (0.5 and 1 μM) for 16 h. Whole cell lysates were subjected to immunoblotting (A-E) using indicated Abs. (F) Jurkat cells were cultured with pomalidomide (0.01-1 μM) or lenalidomide (0.01-1 μM) for 72 h. Cell growth was assessed by MTT assay.
To characterize the effect of IMiDs on Zap-70 function in immune effector cells, pomalidomide triggered phosphorylation of Zap-70 was evaluated along with its known downstream target linker of activated T-cells (LAT) in PBMCs from healthy volunteers. […] Image J densitometric analysis confirmed 42% increased p-Zap-70 after pomalidomide (1 μM) treatment (FIG. 1A, lower panel). The increased p-Zap-70, p-LAT, as well as downstream p-ERK in PBMCs triggered by pomalidomide is also time-dependent (FIG. 1B). […] Since Zap-70 is a mediator of T-cell receptor signaling, whether IMiDs triggered p-Zap-70 in T cells from healthy volunteers was studied.
A general note: A western blot detects proteins with antibodies after separation by electrophoresis.

For assay [4], the target named is T1, Zap-70. Kind of assay: Immunoblotting of p-Zap-70 and p-LAT in primary T-cells from healthy volunteer. It counts as cell-based. More on the design: endogenous in cells; host or cells: primary PBMCs, primary T cells and primary NK cells from healthy volunteers. The settings on record: pomalidomide 0.25-1 μM, 16 h. As for the experimental part: as §1

SMILES strings stand for the structures.

As for `Nc1cccc2c1C(=O)N(C1CCC(=O)NC1=O)C2=O` (centres unmarked) [pomalidomide], the “NK cell activity against U266 cells (percent specific lysis)” value in the assay on U266 cells [1] is given as “upregulated NK activity”. Also, the “NK cytolytic activity against U266 cells” value in the assay with U266 cells [2] was “significantly enhanced their NK cytolytic activity against U266 cells”. Besides, at Zap-70 [3] (16 h, Pom 0.01-1 μM, Len 1 μM), the “phosphorylation of LAT (immunoblotting)” value was “induced phosphorylation of both Zap-70 and LAT in PBMCs in a dose-dependent fashion”; the “phosphorylation of Zap-70 (immunoblotting)” value was “induced phosphorylation of both Zap-70 and LAT in PBMCs in a dose-dependent fashion”. In addition, on Zap-70 [3] (pomalidomide 1 μM, 16 h), the “increased p-Zap-70, Image J densitometric analysis” value came to 42%. The “increased p-Zap-70, p-LAT and downstream p-ERK over time” value at Zap-70 [3] (pomalidomide 0.1 and 1 μM, indicated time periods) is given as “time-dependent”. Moreover, at Zap-70 [4], the “p-LAT (immunoblotting)” value was “induced p-Zap-70 and p-LAT in primary T cells”; the “p-Zap-70 (immunoblotting)” value is “induced p-Zap-70 and p-LAT in primary T cells”.
